Assay results as given in publication PMC9078821, “The synthesis of axially disubstituted silicon phthalocyanines, their quaternized derivatives and first inhibitory effect on human cytosolic carbonic anhydrase isozymes hCA I and II” (RSC Advances, 2018).

Assays:
hCA I = target: T1, hCA I (Homo sapiens, UniProt P00915); assay: Esterase activity assay with 4-nitrophenylacetate as substrate, hCA I; assay type: biochemical; conditions: for IC50: 4-nitrophenylacetate substrate, pH 7.4, 25 °C, enzyme purified from human erythrocytes, errors 2–5%, three assays; for hCA I inhibition, result in words: ranking within the series
T1 construct: from tissue; host or cells: human erythrocytes (fresh human blood)
T1 sequence (P00915 whole entry): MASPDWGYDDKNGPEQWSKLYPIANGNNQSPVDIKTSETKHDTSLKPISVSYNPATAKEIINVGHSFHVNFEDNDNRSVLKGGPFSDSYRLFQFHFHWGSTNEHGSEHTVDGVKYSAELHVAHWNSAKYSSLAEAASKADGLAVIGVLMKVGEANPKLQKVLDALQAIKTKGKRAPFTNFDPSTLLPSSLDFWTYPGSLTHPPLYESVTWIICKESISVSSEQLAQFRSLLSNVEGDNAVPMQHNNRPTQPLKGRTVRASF
Description: (§1) Erythrocytes were purified from fresh human blood obtained from the Blood Centre of the Research Hospital at Atatürk University. The blood samples were centrifuged at 1500 rpm for 15 min and the plasma and buffy coat were removed. The red cells were isolated and washed twice with 0.9% NaCl, and hemolyzed with 1.5 volumes of ice-cold water. The ghost and intact cells were removed by centrifugation at 20 000 rpm for 30 min at 4 °C. The pH of the hemolysate was adjusted to 8.7 with solid Tris.[27] […] The affinity gel was washed with 25 mM Tris–HCl/22 mM Na2SO4 (pH 8.7). The human carbonic anhydrase (hCA I and hCA II) isozymes were eluted with 1 M NaCl/25 mM Na2HPO4 (pH 6.3) and 0.1 M CH3COONa/0.5 M NaClO4 (pH 5.6), respectively. All procedures were performed at 4 °C.[27]
(§2) Carbonic anhydrase activity was assayed by following the change in absorbance at 348 nm of 4-nitrophenylacetate (NPA) to 4-nitrophenylate ion over a period of 3 min at 25 °C using a spectrophotometer (Shimadzu UV-1800) according to the method described by Verpoorte et al.[28] The enzymatic reaction, in a total volume of 3.0 mL, contained 1.4 mL 0.05 M Tris–SO4 buffer (pH 7.4), 1 mL 3 mM 4-nitrophenylacetate, 0.5 mL H2O and 0.1 mL enzyme solution. A reference measurement was obtained by preparing the same cuvette without enzyme solution. The inhibitory effects of compounds were examined. All compounds were tested in triplicate at each concentration used. Different inhibitor concentrations were used. Control cuvette activity in the absence of inhibitor was taken as 100%. For each inhibitor an activity (%)–[inhibitor] graphs were drawn.[29]

hCA II = target: T2, hCA II (Homo sapiens, UniProt P00918); assay: Esterase activity assay with 4-nitrophenylacetate as substrate, hCA II; assay type: biochemical; conditions: 4-nitrophenylacetate substrate, pH 7.4, 25 °C, enzyme purified from human erythrocytes, errors 2–5%, three assays
T2 construct: from tissue; host or cells: human erythrocytes (fresh human blood)
Description: as §1, §2

| SMILES | IC50 (hCA I) [µM] | IC50 (hCA II) [µM] | hCA I inhibition, result in words (hCA I) |
| --- | --- | --- | --- |
| CN(C)c1ccc(/C=C/C(=O)c2ccc(O[Si]3(Oc4ccc(C(=O)/C=C/c5ccc(N(C)C)cc5)cc4)n4c5c6ccccc6c4N=C4N=C(N=c6c7ccccc7c(n63)=NC3=NC(=N5)c5ccccc53)c3ccccc34)cc2)cc1 [ZT-Si, Bis[(2E)-3-[4-(dimethylamino)phenyl]-1-(4-phenoxy)prop-2-en-1-one]phthalocyaninato silicon(IV)] | 0.0178 | 0.0172 | among the best inhibitors |
| c1ccc2c(c1)C1=NC2=Nc2c3ccccc3c3n2[Si](OCc2cc(OCCN4CCOCC4)cc(OCCN4CCOCC4)c2)(OCc2cc(OCCN4CCOCC4)cc(OCCN4CCOCC4)c2)n2c(c4ccccc4c2=NC2=NC(=N3)c3ccccc32)=N1 [ZM-1-Si] | 0.165 | 0.121 | moderately inhibited |

Continued, in another order:

| IC50 (hCA I) [µM] | IC50 (hCA II) [µM] | SMILES | hCA I inhibition, result in words (hCA I) |
| --- | --- | --- | --- |
| 0.0243 | 0.0363 | CC[N+](C)(CC)c1cccc(OCCOCCO[Si]2(OCCOCCOc3cccc([N+](C)(CC)CC)c3)n3c4c5ccccc5c3N=C3N=C(N=c5c6ccccc6c(n52)=NC2=NC(=N4)c4ccccc42)c2ccccc23)c1 [ZM-5-SiQ] |  |
| 0.084 | 0.0762 | CCN(CC)c1cccc(OCCOCCO[Si]2(OCCOCCOc3cccc(N(CC)CC)c3)n3c4c5ccccc5c3N=C3N=C(N=c5c6ccccc6c(n52)=NC2=NC(=N4)c4ccccc42)c2ccccc23)c1 [ZM-5-Si] |  |
| 0.071 | 0.0544 | C[N+]1(CCOc2cc(CO[Si]3(OCc4cc(OCC[N+]5(C)CCOCC5)cc(OCC[N+]5(C)CCOCC5)c4)n4c5c6ccccc6c4N=C4N=C(N=c6c7ccccc7c(n63)=NC3=NC(=N5)c5ccccc53)c3ccccc34)cc(OCC[N+]3(C)CCOCC3)c2)CCOCC1 [ZM-1-SiQ] |  |
